Laboratory results taken from patent US8389677B2, “Antioxidant polypeptide and a process for isolation and purification of the same” (Adichunchanagiri Biotechnology and Cancer Research Institute, priority 2010, dated 2013).

What was measured:
[1] = system: hydroxyl radical; experiment: Deoxyribose method / Hydroxyl radical scavenging assay; type: biochemical; conditions: concentration 400 μM
Description: (§1) ATE containing 2 mg protein was loaded on to the Sephadex G-50 column (VT=240 ml, VO=80 ml) and eluted with 0.1M Tris HCl, pH −7.4 containing 0.1 M NaCl and flow rate was 1.7 ml/5 min, Fractions were monitored at 280 nm. Two peaks were obtained namely Peak I and Peak II. Peak II depicts the polypeptide of the present invention (Arishinin) as shown in FIG. 1 and the Gel filtration chromatography profile of Aqueous Turmeric Extract. Peak II was pooled, concentrated and dialyzed against double distilled water at 4° C. using 2 KDa cut off dialysis membrane for 74 hrs. […] The antioxidant activity was done by TBARS and Hydroxy radical scavenging assay compared to standard antioxidant like BHA, Curcumin and α-tocopherol as positive controls. Cell viability test by Tryphan blue exclusion method was done to test the toxicity of Arishinin.
(§2) The quantification of water-soluble antioxidant polypeptide Arishinin, isolated by the process described in Examples 1 to 4 (as depicted in Table 1 above) was determined by the following methods. Protein estimation was done by Bradford's method (Bradford, M. M., 1976, Analytical Biochem., […]) with an absorption maximum at 595 nm and results shown in Table 1. The antioxidant activity of Arishinin was evaluated by Thio Barbituric Acid Reactive Substance (TBARS) (Shimasaki, H., et al., 1984, Biochem. Biophys. Acta, 792:123-129) and Deoxyribose method/Hydroxyl radical scavenging assay (Halliwell, B., et al., 1981, Methods of Biochemical Sciences, 33:59-90) with absorption maximum at 535 nm by using BHA, alpha tocopherol and Curcumin as standard antioxidants.

[2] = system: lipid peroxidation; experiment: Thio Barbituric Acid Reactive Substance (TBARS) antioxidant assay; type: biochemical; conditions: concentration 400 μM
Description: as §1, §2

[3] = system: mice; conditions: at more than 0.1% dose; cited from earlier work

SMILES	INHIBITION (%) Hydroxyl radical [1] [%]	INHIBITION (%) TBARS [2] [%]	carcinogenicity (fore-stomach tumour in mice) [3]
COc1ccc(O)c(C(C)(C)C)c1 [BHA, Butylated Hydroxyl Anisole]	80 ± 1	84 ± 1.5	carcinogenic
Cc1cc(C(C)(C)C)c(O)c(C(C)(C)C)c1 [BHT, Butylated Hydroxy Toluene]			carcinogenic
COc1cc(/C=C/C(=O)CC(=O)/C=C/c2ccc(O)c(OC)c2)ccc1O [Curcumin]	68 ± 3	72 ± 1.5	
Cc1c(C)c2c(c(C)c1O)CC[C@@](C)(CCC[C@H](C)CCC[C@H](C)CCCC(C)C)O2 [α-tocopherol]	88 ± 2	92 ± 1	
